Results published in ChEMBL document CHEMBL1764955, “The synthesis and evaluation of indolylureas as PKCα inhibitors” (Bioorg Med Chem, 2011).
pIC50: −log10 of the molar value.

Assays:
[1] = target: Protein kinase C alpha type (Homo sapiens, UniProt P17252); assay: Inhibition of human PKCalpha activity using neurogranin as a substrate in presence of 50 uM ATP by mass spectrometry
[2] = target: cAMP-dependent protein kinase catalytic subunit beta (Homo sapiens, UniProt P22694); assay: Inhibition of PKA activity using kemptide as a substrate in presence of 50 uM ATP by mass spectrometry

pIC50 [1] | pIC50 [2] | SMILES
5.32 |  | CCN(CC)CCCn1cc(NC(=O)Nc2ccnc(-c3ccccc3)n2)c2ccccc21
7.02 | 4.63 | CN(C)CCCn1cc(NC(=O)Nc2nccc(-c3ccccc3)n2)c2ccccc21
5.09 |  | CCN(CC)CCCn1cc(NC(=O)Nc2cncc(-c3ccccc3)n2)c2ccccc21
5.57 |  | CCN(CC)CCCn1cc(NC(=O)Nc2cccc(-c3ccccc3)n2)c2ccccc21
